Data published in the supplement of paper PMC10307832.

Tests used:
Assay in all cases: relative viability (nuclei count vs DMSO), 5 days (fraction); higher = more cells survive
201T = test system: 201T
Procedure, shortened: (§1)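 One day after seeding in 1536-well plates, lung cancer cell lines were dosed by pin tool. Dosing was either single-drug or a fixed anchor-drug dose plus five library-drug doses (not always all listed) in √10 steps. After 5 days, nuclei were stained in one fix-and-stain step and counted on 4× images, and relative viability is the nuclei count of treated wells over that of vehicle wells, given as the median of duplicate plates.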

ABC-1 = test system: ABC-1
Procedure, shortened: as §1

BEN = test system: BEN
Procedure, shortened: as §1

CAL-12T = test system: CAL-12T
Procedure, shortened: as §1

COR-L 105 = test system: COR-L 105
Procedure, shortened: as §1

COR-L23 = test system: COR-L23
Procedure, shortened: as §1

EKVX = test system: EKVX
Procedure, shortened: as §1

HARA = test system: HARA
Procedure, shortened: as §1

HCC-366 = test system: HCC-366
Procedure, shortened: as §1

LK-2 = test system: LK-2
Procedure, shortened: as §1

LU99A = test system: LU99A
Procedure, shortened: as §1

NCI-H1437 = test system: NCI-H1437
Procedure, shortened: as §1

NC(=O)Nc1cc(-c2cccc(F)c2)sc1C(=O)N[C@H]1CCCNC1 [AZD7762] + Cc1nc(Nc2ncc(C(=O)Nc3c(C)cccc3Cl)s2)cc(N2CCN(CCO)CC2)n1 [Dasatinib] (partner 0.075 µM)
relative viability (201T; first compound 0.01 µM): 0.592 | relative viability (201T; first compound 0.03162 µM): 0.584 | relative viability (201T; first compound 0.1 µM): 0.602 | relative viability (201T; first compound 0.3162 µM): 0.567 | relative viability (201T; first compound 1 µM): 0.473 | relative viability (ABC-1; first compound 0.01 µM): 0.618 | relative viability (ABC-1; first compound 0.03162 µM): 0.586 | relative viability (ABC-1; first compound 0.1 µM): 0.473 | relative viability (ABC-1; first compound 0.3162 µM): 0.413 | relative viability (ABC-1; first compound 1 µM): 0.273 | relative viability (BEN; first compound 0.01 µM): 0.253 | relative viability (BEN; first compound 0.03162 µM): 0.297 | relative viability (BEN; first compound 0.1 µM): 0.282 | relative viability (BEN; first compound 0.3162 µM): 0.301 | relative viability (BEN; first compound 1 µM): 0.328 | relative viability (CAL-12T; first compound 0.01 µM): 0.637 | relative viability (CAL-12T; first compound 0.03162 µM): 0.463 | relative viability (CAL-12T; first compound 0.1 µM): 0.47 | relative viability (CAL-12T; first compound 0.3162 µM): 0.23 | relative viability (CAL-12T; first compound 1 µM): 0.0827 | relative viability (COR-L 105; first compound 0.01 µM): 0.324 | relative viability (COR-L 105; first compound 0.03162 µM): 0.342 | relative viability (COR-L 105; first compound 0.1 µM): 0.324 | relative viability (COR-L 105; first compound 0.3162 µM): 0.251 | relative viability (COR-L 105; first compound 1 µM): 0.239 | relative viability (COR-L23; first compound 0.01 µM): 0.477 | relative viability (COR-L23; first compound 0.03162 µM): 0.528 | relative viability (COR-L23; first compound 0.1 µM): 0.515 | relative viability (COR-L23; first compound 0.3162 µM): 0.313 | relative viability (COR-L23; first compound 1 µM): 0.0945 | relative viability (EKVX; first compound 0.01 µM): 0.623 | relative viability (EKVX; first compound 0.03162 µM): 0.615 | relative viability (EKVX; first compound 0.1 µM): 0.337 | relative viability (EKVX; first compound 0.3162 µM): 0.543 | relative viability (EKVX; first compound 1 µM): 0.521 | relative viability (HARA; first compound 0.01 µM): 0.306 | relative viability (HARA; first compound 0.03162 µM): 0.304 | relative viability (HARA; first compound 0.1 µM): 0.275 | relative viability (HARA; first compound 0.3162 µM): 0.286 | relative viability (HARA; first compound 1 µM): 0.164 | relative viability (HCC-366; first compound 0.01 µM): 0.707 | relative viability (HCC-366; first compound 0.03162 µM): 0.625 | relative viability (HCC-366; first compound 0.1 µM): 0.659 | relative viability (HCC-366; first compound 0.3162 µM): 0.421 | relative viability (HCC-366; first compound 1 µM): 0.177 | relative viability (LK-2; first compound 0.01 µM): 0.269 | relative viability (LK-2; first compound 0.03162 µM): 0.266 | relative viability (LK-2; first compound 0.1 µM): 0.283 | relative viability (LK-2; first compound 0.3162 µM): 0.27 | relative viability (LK-2; first compound 1 µM): 0.298 | relative viability (LU99A; first compound 0.01 µM): 0.551 | relative viability (LU99A; first compound 0.03162 µM): 0.573 | relative viability (LU99A; first compound 0.1 µM): 0.51 | relative viability (LU99A; first compound 0.3162 µM): 0.419 | relative viability (LU99A; first compound 1 µM): 0.202 | relative viability (NCI-H1437; first compound 0.01 µM): 0.346 | relative viability (NCI-H1437; first compound 0.03162 µM): 0.586
